Experiments:
human FPR2 = target: T1, human FPR2 (Homo sapiens, UniProt P25090); experiment: FPR2 cyclic adenosine monophosphate (cAMP) assay; assay type: cell-based; settings: CHO cells overexpressing human FPR2; forskolin 5 μM; inhibition of cAMP production; HTRF; read-out: hFPR2 cAMP2 EC50
T1 sequence (P25090 1-351): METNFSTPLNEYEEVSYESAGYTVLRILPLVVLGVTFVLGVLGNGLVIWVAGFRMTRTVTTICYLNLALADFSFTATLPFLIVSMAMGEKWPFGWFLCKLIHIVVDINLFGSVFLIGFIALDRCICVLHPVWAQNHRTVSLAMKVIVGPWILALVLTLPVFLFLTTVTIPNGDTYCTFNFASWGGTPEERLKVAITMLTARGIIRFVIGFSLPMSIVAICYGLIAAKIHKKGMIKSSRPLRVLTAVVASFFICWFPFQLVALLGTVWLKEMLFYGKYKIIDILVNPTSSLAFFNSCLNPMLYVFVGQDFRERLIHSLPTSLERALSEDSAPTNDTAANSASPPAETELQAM
Excerpt: (§1) N-formyl peptide receptors (FPRs) are a family of chemo attractant receptors that facilitate leukocyte response during inflammation. FPRs belong to the seven-transmembrane G protein-coupled receptor superfamily and are linked to inhibitory G-proteins (Gi). Three family members (FPR1, FPR2 and FPR3) have been identified in humans and are predominantly found in myeloid cells with varied distribution and have also been reported in multiple organs and tissues. After agonist binding, the FPRs activate a multitude of physiological pathways, such as intra cellular signaling transduction, Ca^2+ mobilization and transcription. The family interacts with a diverse set of ligands that includes proteins, polypeptides and fatty acid metabolites which activate both pro-inflammatory and pro-resolution downstream responses. FPR2 and FPR1 Cyclic Adenosine Monophosphate (cAMP) Assays were used to measure the in vitro activity of the compounds disclosed in this application.
(§2) FPR2 and FPR1 Cyclic Adenosine Monophosphate (cAMP) Assays. A mixture of forskolin (5 μM final for FPR2 or 10 μM final for FPR1) and IBMX (200 μM final) were added to 384-well Proxiplates (Perkin-Elmer) pre-dotted with test compounds in DMSO (1% final) at final concentrations in the range of 0.020 nM to 100 μM. Chinese Hamster Ovary cells (CHO) overexpressing human FPR1 or human FPR2 receptors were cultured in F-12 (Ham's) medium supplemented with 10% qualified FBS, 250 μg/mL zeocin and 300 μg/mL hygromycin (Life Technologies). Reactions were initiated by adding 2,000 human FPR2 cells per well or 4,000 human FPR1 cells per well in Dulbecco's PBS (with calcium and magnesium) (Life Technologies) supplemented with 0.1% BSA (Perkin-Elmer). The reaction mixtures were incubated for 30 min at rt. The level of intracellular cAMP was determined using the HTRF HiRange cAMP assay reagent kit (Cisbio) according to manufacturer's instruction. Solutions of cryptate conjugated anti-cAMP and d2 flurorophore-labeled cAMP were made in a supplied lysis buffer separately. Upon completion of the reaction, the cells were lysed with equal volume of the d2-cAMP solution and anti-cAMP solution. […] The potency and activity of a compound to inhibit cAMP production was then determined by fitting to a 4-parametric logistic equation from a plot of cAMP level versus compound concentrations.

human FPR1 = target: T2, human FPR1 (Homo sapiens, UniProt P21462); experiment: FPR1 cyclic adenosine monophosphate (cAMP) assay; assay type: cell-based; settings: CHO cells overexpressing human FPR1; forskolin 10 μM; inhibition of cAMP production; HTRF; read-out: hFPR1 cAMP2 EC50
T2 sequence (P21462 1-350): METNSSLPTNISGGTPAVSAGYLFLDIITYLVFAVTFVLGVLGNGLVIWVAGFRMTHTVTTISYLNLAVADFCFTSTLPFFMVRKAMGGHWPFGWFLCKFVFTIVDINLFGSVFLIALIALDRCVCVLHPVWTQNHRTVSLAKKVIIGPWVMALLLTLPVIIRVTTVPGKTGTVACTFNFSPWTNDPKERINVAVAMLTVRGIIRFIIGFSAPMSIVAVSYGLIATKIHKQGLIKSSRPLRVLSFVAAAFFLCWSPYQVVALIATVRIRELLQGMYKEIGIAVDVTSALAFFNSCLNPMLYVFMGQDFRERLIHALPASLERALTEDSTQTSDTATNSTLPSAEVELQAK
Excerpt: as §1, §2

| SMILES | EC50 (human FPR2) | EC50 (human FPR1) |
| --- | --- | --- |
| COc1cc(F)c(-c2c(NC(=O)c3ccc(OC(F)F)cc3)c(=O)n(-c3nc(OC)ccc3C(F)(F)F)n2C)c(F)c1 [Example 257, N-[5-(2,6-difluoro-4-methoxyphenyl)-2-[6-methoxy-3-(trifluoromethyl)pyridin-2-yl]-1-methyl-3-oxo-2,3-dihydro-1H-pyrazol-4-yl]-4-(difluoromethoxy)benzamide] | 10 nM | > 10000 nM |
| COc1cc(OCC(C)(C)O)nc(-n2c(=O)c(NC(=O)c3ccc(OC(F)F)cc3)c(-c3c(F)cc(OC)cc3F)n2C)c1 [Example 322] | 7 nM | > 10000 nM |
| COc1cc(F)c(-c2c(NC(=O)c3ccc(OC(F)F)cc3)c(=O)n(-c3cccc(-c4ccccc4)n3)n2C)c(F)c1 [Example 72, N-[5-(2,6-difluoro-4-methoxyphenyl)-1-methyl-3-oxo-2-(6-phenylpyridin-2-yl)-2,3-dihydro-1H-pyrazol-4-yl]-4-(difluoromethoxy)benzamide] | 2.7 nM | 180 nM |
| COc1cc(F)c(-c2c(NC(=O)c3ccc(OC(F)F)cc3)c(=O)n(-c3c(F)cccc3F)n2C)c(F)c1 [Example 27, N-[5-(2,6-difluoro-4-methoxyphenyl)-2-(2,6-difluorophenyl)-1-methyl-3-oxo-2,3-dihydro-1H-pyrazol-4-yl]-4-(difluoromethoxy)benzamide] | 10 nM | > 10000 nM |
| COc1cc(F)c(-c2c(NC(=O)c3ccc(OC(F)F)cc3)c(=O)n(-c3ccc(OCCO)cn3)n2C)c(F)c1 [Example 388, N-(5-(2,6-Difluoro-4-methoxyphenyl)-2-(5-(2-hydroxyethoxy)pyridin-2-yl)-1-methyl-3-oxo-2,3-dihydro-1H-pyrazol-4-yl)-4-(difluoromethoxy)benzamide] | 4 nM | 3600 nM |
| COc1cc(F)c(-c2c(NC(=O)c3ccc(OC(F)(F)F)cc3)c(=O)n(-c3cccnc3C#N)n2C)c(F)c1 [Example 170, N-[2-(2-cyanopyridin-3-yl)-5-(2,6-difluoro-4-methoxyphenyl)-1-methyl-3-oxo-2,3-dihydro-1H-pyrazol-4-yl]-4-(trifluoromethoxy)benzamide] | 8 nM | > 10000 nM |
| COc1cc(F)c(-c2c(NC(=O)c3ccc(OC(F)F)cc3)c(=O)n(-c3ccc(C4CC4)cn3)n2C)c(F)c1 [Example 47, N-[2-(5-cyclopropylpyridin-2-yl)-5-(2,6-difluoro-4-methoxyphenyl)-1-methyl-3-oxo-2,3-dihydro-1H-pyrazol-4-yl]-4-(difluoromethoxy)benzamide] | 6 nM | 460 nM |
| [2H]C([2H])([2H])Oc1cc(F)c(-c2c(NC(=O)c3ccc(OC(F)(F)F)cc3)c(=O)n(-c3cc(C(F)(F)F)ccn3)n2C)c(F)c1 [Example 402, N-(5-(2,6-difluoro-4-(methoxy-d3)phenyl)-1-methyl-3-oxo-2-(4-(trifluoromethyl)pyridin-2-yl)-2,3-dihydro-1H-pyrazol-4-yl)-4-(trifluoromethoxy)benzamide] | 5 nM | > 10000 nM |
| COc1cc(F)c(-c2c(NC(=O)c3ccc(OC(F)F)cc3)c(=O)n(-c3nc(C(C)(C)F)ccc3C#N)n2C)c(F)c1 [Example 194, N-{2-[3-cyano-6-(2-fluoropropan-2-yl)pyridin-2-yl]-5-(2,6-difluoro-4-methoxyphenyl)-1-methyl-3-oxo-2,3-dihydro-1H-pyrazol-4-yl}-4-(difluoromethoxy)benzamide] | 5 nM | > 10000 nM |
| COc1cc(C2CCOCC2)nc(-n2c(=O)c(NC(=O)c3ccc(OC(F)F)cc3)c(-c3c(F)cc(OC)cc3F)n2C)c1 [Example 345, N-(5-(2,6-Difluoro-4-methoxyphenyl)-2-(4-methoxy-6-(tetrahydro-2H-pyran-4-yl)pyridin-2-yl)-1-methyl-3-oxo-2,3-dihydro-1H-pyrazol-4-yl)-4-(difluoromethoxy)benzamide] | 5 nM | > 10000 nM |
| COc1cc(F)c(-c2c(NC(=O)c3ccc(OC(F)F)cc3)c(=O)n(-c3cccnc3OC)n2C)c(F)c1 [Example 330, N-(5-(2,6-Difluoro-4-methoxyphenyl)-2-(2-methoxypyridin-3-yl)-1-methyl-3-oxo-2,3-dihydro-1H-pyrazol-4-yl)-4-(difluoromethoxy)benzamide] | 6 nM | > 10000 nM |
| COc1cc(F)c(-c2c(NC(=O)c3ccc(OC(F)F)cc3)c(=O)n(-c3nc(C(F)(F)F)ccc3C#N)n2C)c(F)c1 [Example 157, N-{2-[3-cyano-6-(trifluoromethyl)pyridin-2-yl]-5-(2,6-difluoro-4-methoxyphenyl)-1-methyl-3-oxo-2,3-dihydro-1H-pyrazol-4-yl}-4-(difluoromethoxy)benzamide] | 4 nM | > 10000 nM |
| COc1cc(F)c(-c2c(NC(=O)c3ccc(OC(F)(F)F)cc3)c(=O)n(-c3c(F)cccc3F)n2C)c(F)c1 [Example 26, N-[5-(2,6-difluoro-4-methoxyphenyl)-2-(2,6-difluorophenyl)-1-methyl-3-oxo-2,3-dihydro-1H-pyrazol-4-yl]-4-(trifluoromethoxy)benzamide] | 9 nM | 1100 nM |
| COc1cc(F)c(-c2c(NC(=O)c3ccc(OC(F)F)cc3)c(=O)n(-c3cncc(C)n3)n2C)c(F)c1 [Example 61, N-[5-(2,6-difluoro-4-methoxyphenyl)-1-methyl-2-(6-methylpyrazin-2-yl)-3-oxo-2,3-dihydro-1H-pyrazol-4-yl]-4-(difluoromethoxy)benzamide] | 11 nM | 1600 nM |
| CCOc1cccc(-n2c(=O)c(NC(=O)c3ccc(OC(F)F)cc3)c(-c3c(F)cc(OC)cc3F)n2C)c1 [Example 118, N-[5-(2,6-difluoro-4-methoxyphenyl)-2-(3-ethoxyphenyl)-1-methyl-3-oxo-2,3-dihydro-1H-pyrazol-4-yl]-4-(difluoromethoxy)benzamide] | 6 nM | 3 nM |
| COc1cc(F)c(-c2c(NC(=O)c3ccc(OC(F)F)cc3)c(=O)n(-c3cc(F)ccc3C#N)n2C)c(F)c1 [Example 188, N-[2-(2-cyano-5-fluorophenyl)-5-(2,6-difluoro-4-methoxyphenyl)-1-methyl-3-oxo-2,3-dihydro-1H-pyrazol-4-yl]-4-(difluoromethoxy)benzamide] | 14 nM | > 10000 nM |
| CNC(=O)CN(C)c1ccc(C(F)(F)F)c(-n2c(=O)c(NC(=O)c3ccc(OC(F)F)cc3)c(-c3c(F)cc(OC)cc3F)n2C)n1 [Example 260, N-[5-(2,6-difluoro-4-methoxyphenyl)-1-methyl-2-(6-{methyl[(methylcarbamoyl)methyl]amino}-3-(trifluoromethyl)pyridin-2-yl)-3-oxo-2,3-dihydro-1H-pyrazol-4-yl]-4-(difluoromethoxy)benzamide] | 10 nM | > 10000 nM |
| COc1cc(F)c(-c2c(NC(=O)c3ccc(OC(F)F)cc3)c(=O)n(-c3cc(OCC4(C)COC4)cc(C(F)(F)F)n3)n2C)c(F)c1 [Example 349, N-(5-(2,6-Difluoro-4-methoxyphenyl)-1-methyl-2-(4-((3-methyloxetan-3-yl)methoxy)-6-(trifluoromethyl)pyridin-2-yl)-3-oxo-2,3-dihydro-1H-pyrazol-4-yl)-4-(difluoromethoxy)benzamide] | 22 nM | 94 nM |
